Experimental findings from ChEMBL document CHEMBL1201862, “PubChem BioAssay data set” (2004) are described below.

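Cultured in 96-well plates, cells were exposed to test compound for 48 hours across five concentrations. At the GI50, growth is halved.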 The source made the active and inactive calls. No stated cut-off is given here; in the data, active = GI50 up to about 1.1 µM and inactive = higher.

Some test systems named below: A498; CAKI-1; CCRF-CEM; HCC 2998; HCT-116; HL-60; HOP-92; HT-29; K562; LOX IMVI; OVCAR-8; SNB-19; SNB-75; UACC-257; UACC-62; NCI-H522.
Common to all, as to test: inhibition of tumour cell growth, NCI panel, 48 h

Take `CN1CCc2c1nc(-c1ccccc1)c1c2N(C)CC1`: the GI50 in the assay with A498 was 26.1 µM (inactive); with CAKI-1, 28.1 µM (inactive); in the assay on CCRF-CEM, 60.5 µM (inactive); in the assay on HCC 2998 it was 99.3 µM (inactive); in the assay with HCT-116, 28.1 µM (inactive); in the assay on HL-60 it was 31 µM (inactive). Besides, the GI50 in the assay with HOP-92 was 29.7 µM (inactive); in the assay with HT-29 it was 31.1 µM (inactive); in the assay on K562 it was 25.4 µM (inactive); with LOX IMVI, 49 µM (inactive); in the assay on OVCAR-8 it was 57.4 µM (inactive); in the assay on SNB-19 it was 90.4 µM (inactive). In addition, the values for the GI50 in the assay with SNB-75, in the assay with UACC-257 and with UACC-62 were > 100 µM (inactive), 93.5 µM (inactive) and > 100 µM (inactive), respectively.

As to `CC(=O)OCC1OC(N=[N+]=[N-])C(OC(C)=O)C(OC(C)=O)C1OC1OC(COC(C)=O)C(OC(C)=O)C(OC(C)=O)C1OC(C)=O` (stereo not drawn), the GI50 in the assay with A498, in the assay on CAKI-1, in the assay on CCRF-CEM, in the assay on HCC 2998, with HL-60 and in the assay on HT-29 was > 100 µM (inactive) each time. Also, the GI50 in the assay with K562 is > 100 µM (inactive); in the assay with LOX IMVI, > 100 µM (inactive); with NCI-H522, > 100 µM (inactive); in the assay with OVCAR-8 it was > 100 µM (inactive); in the assay on SNB-19 it was 64.1 µM (inactive); with SNB-75, 20.5 µM (inactive). Further, the GI50 with UACC-257 and in the assay on UACC-62 was > 100 µM (inactive) in each case.

As for `O=C1CCC(Cl)=CC2CCCN12` (stereo not drawn), the GI50 in the assay with A498 was > 100 µM (inactive); with CAKI-1, > 100 µM (inactive); in the assay on CCRF-CEM it was > 10 µM (inactive); in the assay on HCC 2998 it was > 100 µM (inactive); in the assay with HCT-116, > 100 µM (inactive); with HL-60 it was > 100 µM (inactive). For the same compound, the GI50 in the assay on HOP-92, with HT-29, in the assay on K562, in the assay on LOX IMVI, in the assay with OVCAR-8 and in the assay with SNB-19 was > 100 µM (inactive) throughout. The GI50 with SNB-75, in the assay with UACC-257 and with UACC-62 was > 100 µM (inactive) in each case.

Take `FC(F)(F)c1cccc2ns[s+]c12`: the GI50 with A498, in the assay on CAKI-1, with CCRF-CEM, with HCC 2998, in the assay on HCT-116 and with HL-60 was > 100 µM (inactive) throughout. Further, the GI50 with HT-29, with K562, in the assay with LOX IMVI, with NCI-H522, in the assay on OVCAR-8 and in the assay on SNB-19 was > 100 µM (inactive) each time. The GI50 in the assay on SNB-75, in the assay with UACC-257 and in the assay on UACC-62 was > 100 µM (inactive) throughout.

Regarding `Nn1c(S)nnc1N/N=C1/C(=O)Nc2c(Cl)cc(Cl)cc21`, the GI50 in the assay on A498 was 65.5 µM (inactive); with CAKI-1, 69 µM (inactive); in the assay with CCRF-CEM, 37.1 µM (inactive); in the assay on HCC 2998, 58.2 µM (inactive); in the assay with HCT-116, > 100 µM (inactive); in the assay with HL-60, 69.2 µM (inactive). In addition, the GI50 in the assay on HOP-92 is 73.1 µM (inactive); in the assay on HT-29 it was > 100 µM (inactive); with K562, 31.2 µM (inactive); in the assay with LOX IMVI, 48.5 µM (inactive); in the assay on NCI-H522, 95.1 µM (inactive); in the assay with OVCAR-8 it was > 100 µM (inactive). Moreover, the GI50 in the assay on SNB-19 is 76 µM (inactive); in the assay with UACC-257 it was > 100 µM (inactive); with UACC-62, > 100 µM (inactive).

As to `Nc1ccc2nc(Nc3ccc(Cl)c(Cl)c3)cnc2c1`, the GI50 is 28.8 µM (inactive) in the assay on CAKI-1; 1.11 µM (active) in the assay on CCRF-CEM; 16.1 µM (inactive) in the assay with HCC 2998; 18.1 µM (inactive) in the assay with HCT-116; 8.47 µM (inactive) in the assay with HL-60; 16.2 µM (inactive) in the assay on HT-29. The GI50 with K562 is 19 µM (inactive); in the assay on LOX IMVI, 14.7 µM (inactive); in the assay on NCI-H522, 6.37 µM (inactive); in the assay on OVCAR-8, 26.2 µM (inactive); in the assay on SNB-19, 17.3 µM (inactive); with SNB-75, 82.6 µM (inactive). Moreover, the GI50 in the assay on UACC-257 was 25.8 µM (inactive).

Consider `CCOc1nc(OCC)nc(-c2cccn2-c2ccccc2)n1`, for which the GI50 is 47.4 µM (inactive) with A498; 30.5 µM (inactive) in the assay with CAKI-1; 29.6 µM (inactive) in the assay with CCRF-CEM; 32.3 µM (inactive) in the assay with HCC 2998; 37.3 µM (inactive) in the assay on HCT-116; 21.7 µM (inactive) with HL-60. Also, the GI50 in the assay on HT-29 is 34.6 µM (inactive); with K562, 30.5 µM (inactive); in the assay with NCI-H522, 32.7 µM (inactive); in the assay on OVCAR-8, 35.5 µM (inactive); with SNB-19, 31.4 µM (inactive); with UACC-257, 40.5 µM (inactive). Also, the GI50 in the assay with UACC-62 is 27.7 µM (inactive).

For the compound `CCCCNC1=C(C(=O)OCC)/C(=N/NC(=O)c2ccccc2O)CO1`, the GI50 with A498 was > 100 µM (inactive); in the assay on CAKI-1, 8.53 µM (inactive); in the assay with CCRF-CEM, 23.7 µM (inactive); with HCC 2998, 34.4 µM (inactive); in the assay on HCT-116, 6.68 µM (inactive); with HL-60 it was 24.8 µM (inactive). Besides, the GI50 in the assay on K562 was 13.2 µM (inactive); in the assay with LOX IMVI it was 25.5 µM (inactive); in the assay on NCI-H522 it was 13.4 µM (inactive); with OVCAR-8, 95.1 µM (inactive); with SNB-19, > 100 µM (inactive); in the assay on SNB-75 it was 1.73 µM (inactive). In addition, the GI50 in the assay with UACC-257 was 2.82 µM (inactive); with UACC-62 it was 13.1 µM (inactive).

For the compound `CCc1cccc(C(C)CC)c1NC(=O)CC1C(=O)Nc2ccccc2S1(=O)=O` (stereo not drawn), the GI50 in the assay with A498 is 33.6 µM (inactive); in the assay on CAKI-1, 15.4 µM (inactive); with CCRF-CEM, 5.22 µM (inactive); in the assay with HCC 2998, 6.17 µM (inactive); in the assay on HT-29, 15.2 µM (inactive); with K562, 4.95 µM (inactive). For the same compound, the GI50 is 6.49 µM (inactive) in the assay with LOX IMVI; 4.22 µM (inactive) in the assay on OVCAR-8; 13.4 µM (inactive) with SNB-19; 14.8 µM (inactive) with SNB-75; 42.3 µM (inactive) with UACC-257; 22.3 µM (inactive) in the assay on UACC-62.

As for `CC1OC(n2ccc(=O)[nH]c2=O)C=C(OC(=O)c2ccccc2)C1=O` (stereo not drawn), the GI50 with CAKI-1 is 42.6 µM (inactive); with CCRF-CEM, > 100 µM (inactive); in the assay with HL-60, > 100 µM (inactive); in the assay with HOP-92 it was 30.2 µM (inactive); in the assay with HT-29, 44.6 µM (inactive); with K562, > 100 µM (inactive). For the same compound, the GI50 in the assay with LOX IMVI was 35.7 µM (inactive); with OVCAR-8, 45 µM (inactive); in the assay on SNB-19, > 100 µM (inactive); in the assay on SNB-75 it was 27 µM (inactive); with UACC-257, 86.9 µM (inactive); in the assay with UACC-62, > 100 µM (inactive).
